# According to a melting point compilation (Tetko et al.):
row,Structure (SMILES),melting point
1,COc1ccc(-c2ccc(C=O)o2)c([N+](=O)[O-])c1,107 to 109 °C
2,O=C(O)c1ccc(-c2ccc(F)cc2)cc1F,237 to 239 °C
3,FC(F)(F)CNc1nnc(S)s1,178 to 180 °C
4,Cc1c(Br)ccc(S(N)(=O)=O)c1C,195 to 197 °C
5,CC(=O)N(c1ccc(F)cc1)c1nc(CCl)cs1,127 to 129 °C
6,O=Cc1cn(-c2ccccc2)nc1-c1ccc(-c2nn(-c3ccccc3)cc2C=O)cc1,271 to 273 °C
7,O=C1NC(=O)C2(CCNCC2)N1,240 to 250 °C
8,CC(C)(C)c1ccc(C(=O)N=C=S)cc1,33 to 35 °C
9,O=C(O)C1=COCCC1,71 to 73 °C
10,Cc1cc2c(Cl)nccc2o1,38 to 40 °C
11,CC1CN(S(=O)(=O)Cl)CC(C)O1 (configuration not stated),74 to 76 °C
12,Cn1c(=O)c2c(ncn2CCCC(=O)O)n(C)c1=O,167 to 169 °C
13,NNC(=O)c1cc(Br)c[nH]1,215 to 219 °C
14,ClC(c1ccccc1)c1nc(-c2ccccc2)no1 (configuration not stated),74 to 76 °C
15,CC(C)(C)OC(=O)NCC1CCC(C(=O)O)CC1 (configuration not stated),132 to 134 °C
16,N#Cc1ccc2c(c1)C=CS2(=O)=O,149 to 151 °C
17,O=S(=O)(Cl)C=Cc1ccc(Cl)cc1,131 to 133 °C
18,O=C(O)c1cocn1,129 to 131 °C
19,COc1ccc(-c2csc(C)n2)cc1OC,74 to 76 °C
20,Cc1sc(=O)n(CCC(=O)O)c1C,150 to 152 °C
21,Fc1ccc(-c2n[nH]cc2Br)cc1,141 to 143 °C
22,O=C(O)C1CCc2nncn2C1 (configuration not stated),279 to 281 °C
23,CCC(C)(CNC(=O)OC(C)(C)C)C(=O)O (configuration not stated),113 to 115 °C

# Next, values leading:
row,melting point,Structure (SMILES)
1,109 to 111 °C,Nc1cccc2c1CN(CCO)C2
2,83 to 85 °C,COc1ccc(C(=O)CBr)cc1OC
3,115 to 117 °C,O=C(O)C1CC(c2ccc(Cl)cc2Cl)=NO1 (configuration not stated)
4,227 to 229 °C,NC(CC(=O)O)c1cccc(Cl)c1 (configuration not stated)
5,143 to 145 °C,O=C(O)c1sccc1S(=O)(=O)N1CCC(CO)CC1
6,170 to 172 °C,O=C(CCl)Nc1ccccc1C(=O)NC1CC1
7,135 to 137 °C,Oc1cccc(-c2nccc(Cl)n2)c1
8,109 to 111 °C,Nc1ccccc1Sc1nncs1
9,180 to 182 °C,COCCCn1c(S)nc2ccccc2c1=O
10,74 to 76 °C,CC(=O)c1nnn(-c2cccc(Br)c2)c1C
11,135 to 137 °C,O=c1cc(CCl)c2ccc(O)cc2o1
12,141 to 143 °C,NC(=O)C1COc2ccccc2O1 (configuration not stated)
13,140 to 142 °C,CC(NS(=O)(=O)Cc1ccc(CN)cc1)C(N)=O (configuration not stated)
14,219 to 221 °C,N#Cc1cc(S(N)(=O)=O)ccc1Cl
15,126 to 128 °C,CN(CC(=O)O)C(=O)Nc1cccc2ccccc12
16,159 to 161 °C,O=C(O)C1CCCN(C(=O)C2Cc3cc(Cl)ccc3O2)C1 (configuration not stated)
17,221 to 223 °C,O=c1[nH]c(CO)nc2ccccc12

row,melting point,Structure (SMILES)
1,90 to 92 °C,CC(C)Cc1cc(N)n(C)n1
2,154 to 156 °C,CCOc1ccc(C(=O)NCC(=O)O)cc1
3,45 to 47 °C,COc1cccc2cc(C=O)oc12
4,256 to 258 °C,O=c1[nH]cnc2c(-c3ccccc3)nsc12
5,178 to 180 °C,O=C(CCl)Nc1c(Cl)cccc1Cl
6,44 to 46 °C,Cc1cc(F)ccc1CO
7,113 to 115 °C,O=Cc1ccccc1-n1cncn1
8,144 to 146 °C,COC(=O)COc1cc(C(=O)O)ccc1OC
9,122 to 124 °C,Nc1ccccc1NS(=O)(=O)c1ccc(F)cc1
10,66 to 68 °C,CC(C)CC(Cc1cccc(Br)c1)C(=O)O (configuration not stated)
11,103 to 105 °C,N#CCN(C(=O)c1ccccc1)C1CC1
12,142 to 144 °C,Nc1nnc(CCOc2ccccc2)o1
13,80 to 82 °C,N#Cc1ccc(Oc2ccccc2C(F)(F)F)nc1
14,199 to 201 °C,O=C(O)c1nc(-c2cccs2)n(-c2ccccc2)n1
15,229 to 231 °C,CCCCOc1ccc(-c2nnc(N)o2)cc1
16,109 to 111 °C,Cc1cc(N)n(-c2ccc(F)cc2)n1
17,227 to 229 °C,CS(=O)(=O)Nc1ccc(C(=O)O)c(O)c1
